Measured values as given in ChEMBL document CHEMBL1909046, “DrugMatrix in vitro pharmacology data”.

How the values were obtained:
[1] = molecular target: T1, C-C chemokine receptor type 4 (Homo sapiens, UniProt P51679); assay type: cell membranes, Chem-1, Membrane; conditions: chem-1; also: in other assays of this panel Not Active means under 50% inhibition at 10 µM
T1 sequence (P51679 whole entry): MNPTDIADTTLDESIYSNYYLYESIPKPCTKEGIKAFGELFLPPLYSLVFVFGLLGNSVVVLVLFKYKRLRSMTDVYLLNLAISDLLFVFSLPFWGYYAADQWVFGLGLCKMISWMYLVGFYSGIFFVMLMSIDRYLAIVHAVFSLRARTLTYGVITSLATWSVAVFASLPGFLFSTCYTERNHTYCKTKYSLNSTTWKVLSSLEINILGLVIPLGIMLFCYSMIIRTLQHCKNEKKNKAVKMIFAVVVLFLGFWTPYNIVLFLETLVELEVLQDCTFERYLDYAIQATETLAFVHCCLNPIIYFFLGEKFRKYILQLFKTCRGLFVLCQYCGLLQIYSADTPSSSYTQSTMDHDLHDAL

[2] = DRUGMATRIX: Calcium Channel Type L, Dihydropyridine radioligand binding (ligand: [3H] Nitrendipine); assay type: cell membranes, Rattus norvegicus, Wistar, Cerebral cortex, Membrane; conditions: Not Active = under 50% inhibition at 10 µM
[3] = DRUGMATRIX: Phosphodiesterase PDE4 enzyme inhibition (substrate: [3H]cAMP + cAMP); conditions: u-937, Not Active = under 50% inhibition at 10 µM
[4] = molecular target: Prostaglandin G/H synthase 1 (Homo sapiens, UniProt P23219); assay: biochemical; assay type: tissue-based, Platelet; conditions: platelet;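 also: inhibition of COX-1 enzyme activity, with arachidonic acid supplied as substrate; in other assays of this panel Not Active means under 50% inhibition at 10 µM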
[5] = DRUGMATRIX: Glutamate, AMPA radioligand binding (ligand: [3H] AMPA); assay type: cell membranes, Rattus norvegicus, Wistar, Cerebral cortex, Membrane; conditions: Not Active = under 50% inhibition at 10 µM
[6] = molecular target: Protein phosphatase 3 catalytic subunit alpha (Homo sapiens, UniProt Q08209); parameters: species or system Escherichia coli;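 also: inhibition of calcineurin (PP2B) enzyme activity, measured with DiFMUP as the substrate; in other assays of this panel Not Active means under 50% inhibition at 10 µM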
[7] = molecular target: T2, Alpha-2C adrenergic receptor (Homo sapiens, UniProt P18825); assay: DRUGMATRIX: Adrenergic Alpha-2C radioligand binding (ligand: [3H] MK-912); assay type: cell membranes, Sf9, Membrane
T2 sequence (P18825 whole entry): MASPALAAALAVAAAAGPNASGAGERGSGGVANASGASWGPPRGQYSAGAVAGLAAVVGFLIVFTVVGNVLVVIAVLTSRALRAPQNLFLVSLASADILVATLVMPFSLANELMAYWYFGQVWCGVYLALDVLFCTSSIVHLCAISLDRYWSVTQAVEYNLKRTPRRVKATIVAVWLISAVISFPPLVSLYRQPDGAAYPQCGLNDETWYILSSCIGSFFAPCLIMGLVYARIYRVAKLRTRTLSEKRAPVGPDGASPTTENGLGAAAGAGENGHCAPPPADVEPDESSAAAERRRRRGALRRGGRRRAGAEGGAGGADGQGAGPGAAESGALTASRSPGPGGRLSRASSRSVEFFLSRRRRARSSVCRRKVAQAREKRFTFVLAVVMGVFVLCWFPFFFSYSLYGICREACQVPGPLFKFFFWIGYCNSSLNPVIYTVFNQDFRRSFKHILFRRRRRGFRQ

Sequence of Prostaglandin G/H synthase 1 (P23219 whole entry): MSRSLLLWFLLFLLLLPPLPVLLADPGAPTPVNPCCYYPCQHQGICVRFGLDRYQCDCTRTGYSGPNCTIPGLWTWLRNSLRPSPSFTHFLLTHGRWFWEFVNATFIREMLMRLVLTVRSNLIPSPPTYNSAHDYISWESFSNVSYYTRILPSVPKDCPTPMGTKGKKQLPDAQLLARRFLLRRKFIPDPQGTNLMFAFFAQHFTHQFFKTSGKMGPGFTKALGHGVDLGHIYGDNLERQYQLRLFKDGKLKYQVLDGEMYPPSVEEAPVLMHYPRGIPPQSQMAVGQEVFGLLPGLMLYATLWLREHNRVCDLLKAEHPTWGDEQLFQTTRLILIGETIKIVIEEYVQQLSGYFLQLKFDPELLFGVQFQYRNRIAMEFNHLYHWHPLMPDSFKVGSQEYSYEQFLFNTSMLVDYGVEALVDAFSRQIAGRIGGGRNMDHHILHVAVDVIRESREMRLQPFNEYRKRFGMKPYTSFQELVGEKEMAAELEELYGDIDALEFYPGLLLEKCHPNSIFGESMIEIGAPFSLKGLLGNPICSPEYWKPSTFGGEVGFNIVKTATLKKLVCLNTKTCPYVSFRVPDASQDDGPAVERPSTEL

| SMILES | IC50 [1] | IC50 [2] | Ki [2] | IC50 ([3]; read-out: IC50) [µM] | IC50 [4] | IC50 [5] | Ki [5] | IC50 [6] | IC50 ([7]; sf9) | IC50 [3] | Ki [3] | IC50 ([7]; read-out: IC50) [µM] | Ki ([7]; read-out: Ki) [µM] |
| --- | --- | --- | --- | --- | --- | --- | --- | --- | --- | --- | --- | --- | --- |
| CN(CCOc1ccc(C[C@H](Nc2ccccc2C(=O)c2ccccc2)C(=O)O)cc1)c1ccccn1 | Not Active | Not Active | Not Active | 7.45 | Not Active | Not Active | Not Active | Not Active | Not Active | – | – | – | – |
| O=c1[nH]cnc2c1ncn2[C@H]1CC[C@@H](CO)O1 [DIDANOSINE] | Not Active | Not Active | Not Active | – | Not Active | Not Active | Not Active | Not Active | Not Active | Not Active | Not Active | – | – |
| CC(C)(c1ccc(O)cc1)c1ccc(O)cc1 [BISPHENOL A] | Not Active | Not Active | Not Active | – | Not Active | Not Active | Not Active | Not Active | Not Active | Not Active | Not Active | – | – |
| ClC1=C(Cl)[C@]2(Cl)[C@@H]3[C@@H]4C[C@@H]([C@H]5O[C@@H]45)[C@@H]3[C@@]1(Cl)C2(Cl)Cl [DIELDRIN] | Not Active | Not Active | Not Active | – | Not Active | Not Active | Not Active | Not Active | Not Active | Not Active | Not Active | – | – |
| c1ccc(Cn2ccnc2)cc1 | Not Active | Not Active | Not Active | – | Not Active | Not Active | Not Active | Not Active | Not Active | Not Active | Not Active | – | – |
| C[C@]12CC[C@@H](O)C[C@@H]1CC[C@@H]1[C@@H]2CC[C@]2(C)C(=O)CC[C@@H]12 [ANDROSTERONE] | Not Active | Not Active | Not Active | – | Not Active | Not Active | Not Active | Not Active | Not Active | Not Active | Not Active | – | – |
| CC12CCC(CC1)C(C)(C)O2 [EUCALYPTOL] | Not Active | Not Active | Not Active | – | Not Active | Not Active | Not Active | Not Active | Not Active | Not Active | Not Active | – | – |
| Nc1nc(N)c2nc(CNc3ccc(C(=O)N[C@@H](CCC(=O)O)C(=O)O)cc3)cnc2n1 [AMINOPTERIN] | Not Active | Not Active | Not Active | – | Not Active | Not Active | Not Active | Not Active | Not Active | Not Active | Not Active | – | – |
| Nc1ccc(Cc2ccc(N)cc2)cc1 | Not Active | Not Active | Not Active | – | Not Active | Not Active | Not Active | Not Active | Not Active | Not Active | Not Active | – | – |
| COc1ccccc1OCCNCC(O)COc1cccc2[nH]c3ccccc3c12 (stereo not given) [CARVEDILOL] | Not Active | Not Active | Not Active | – | Not Active | Not Active | Not Active | Not Active | – | Not Active | Not Active | 0.09 | 0.013 |
| CCN1CCN(c2cc3c(cc2F)c(=O)c(C(=O)O)cn3C2CC2)CC1 [ENROFLOXACIN] | Not Active | Not Active | Not Active | – | Not Active | Not Active | Not Active | Not Active | Not Active | Not Active | Not Active | – | – |
| O=C(O)CNCP(=O)(O)O [GLYPHOSATE] | Not Active | Not Active | Not Active | – | Not Active | Not Active | Not Active | Not Active | Not Active | Not Active | Not Active | – | – |
